According to patent US9587005B2 (priority 2010, dated 2017):
Where two headings read alike, the source gives them in different places. *1 amine or outer side, *2 acyl side, *3 side chain or, on linkers, in order; H or OH if unused. Where a SMILES comes first, the peptide text is derived from it. Where no end group is shown, it is not given here. Side-chain parts run from the residue outwards. [ ]: non-standard residue; d: D form. The star is where a group is joined. Phe(4-NH2) = Nc1ccc(C[C@H](N)C(=O)O)cc1; γGlu = O=C(O)[C@H](CCC(=O)[*:2])N[*:1]; X6 = CCCCCCCCCCCCCCCCC(CC(=O)*)C(=O)O; Palmitoyl = CCCCCCCCCCCCCCCC(=O)*; Aib = CC(C)(N)C(=O)O

Assays:
Format in all cases: cell-based
GLP-1 receptor = target: T1, GLP-1 receptor (Homo sapiens, UniProt P43220); assay: cAMP induction, firefly luciferase reporter assay in HEK293 cells co-transfected with GLP-1 receptor
T1 construct: expressed in transfected cells; host or cells: HEK293
T1 sequence (P43220 24-463): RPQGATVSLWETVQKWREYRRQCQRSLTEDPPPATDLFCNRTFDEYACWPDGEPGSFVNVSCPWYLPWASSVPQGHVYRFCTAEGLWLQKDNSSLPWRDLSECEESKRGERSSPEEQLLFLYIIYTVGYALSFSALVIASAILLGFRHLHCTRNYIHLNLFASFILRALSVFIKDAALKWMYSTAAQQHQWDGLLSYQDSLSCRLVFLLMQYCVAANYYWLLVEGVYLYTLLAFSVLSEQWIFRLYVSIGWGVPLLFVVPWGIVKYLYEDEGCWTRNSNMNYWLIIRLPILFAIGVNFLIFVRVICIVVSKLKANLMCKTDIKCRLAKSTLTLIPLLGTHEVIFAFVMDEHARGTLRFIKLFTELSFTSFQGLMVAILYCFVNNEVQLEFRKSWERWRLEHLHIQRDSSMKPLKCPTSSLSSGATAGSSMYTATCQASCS
Text: (§1) This example describes an exemplary method of testing the biological activity of the peptides of the present disclosures, which method involves assaying cAMP synthesis.

glucagon receptor = target: T2, glucagon receptor (Homo sapiens, UniProt P47871); assay: cAMP induction, firefly luciferase reporter assay in HEK293 cells co-transfected with glucagon receptor
T2 construct: expressed in transfected cells; host or cells: HEK293
T2 sequence (P47871 26-477): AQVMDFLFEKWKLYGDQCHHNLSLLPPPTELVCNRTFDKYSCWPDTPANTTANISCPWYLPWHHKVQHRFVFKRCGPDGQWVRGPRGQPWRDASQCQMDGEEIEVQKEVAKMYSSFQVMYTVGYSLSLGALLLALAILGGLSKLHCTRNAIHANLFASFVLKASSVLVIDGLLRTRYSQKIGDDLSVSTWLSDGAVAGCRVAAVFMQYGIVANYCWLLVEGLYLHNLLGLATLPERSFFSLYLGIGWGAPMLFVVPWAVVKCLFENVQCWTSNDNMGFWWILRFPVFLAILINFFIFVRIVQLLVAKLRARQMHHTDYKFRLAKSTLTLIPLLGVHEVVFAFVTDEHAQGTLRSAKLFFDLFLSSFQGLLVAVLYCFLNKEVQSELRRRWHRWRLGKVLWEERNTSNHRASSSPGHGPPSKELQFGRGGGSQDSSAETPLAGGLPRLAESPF
Text: as §1

GIP receptor = target: T3, GIP receptor (Homo sapiens, UniProt P48546); assay: cAMP induction, firefly luciferase reporter assay in HEK293 cells co-transfected with GIP receptor
T3 sequence (P48546 22-466): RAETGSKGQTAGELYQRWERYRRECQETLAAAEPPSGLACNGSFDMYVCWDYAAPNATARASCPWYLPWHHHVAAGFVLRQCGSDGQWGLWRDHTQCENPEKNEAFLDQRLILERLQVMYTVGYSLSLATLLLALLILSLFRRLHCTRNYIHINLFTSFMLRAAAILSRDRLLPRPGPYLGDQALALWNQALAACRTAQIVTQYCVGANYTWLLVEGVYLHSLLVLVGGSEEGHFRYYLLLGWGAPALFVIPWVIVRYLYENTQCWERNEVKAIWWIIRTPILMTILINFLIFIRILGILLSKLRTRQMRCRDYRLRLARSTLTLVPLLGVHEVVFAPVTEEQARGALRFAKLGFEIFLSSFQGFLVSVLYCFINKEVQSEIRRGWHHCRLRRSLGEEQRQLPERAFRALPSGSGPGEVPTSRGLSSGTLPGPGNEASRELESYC

[1] = EC50 (nM) at glucagon receptor, Table 16, Example 24

## CCCCCCCCCCCCCCCC(=O)N[C@@H](CCC(=O)N[C@@H](CCC(=O)NCCCC[C@H](NC(=O)[C@H](CC(=O)O)NC(=O)[C@H](CO)NC(=O)[C@@H](NC(=O)[C@H](Cc1ccccc1)NC(=O)[C@@H](NC(=O)CNC(=O)[C@H](CCC(N)=O)NC(=O)C(C)(C)NC(=O)[C@@H](N)Cc1c[nH]cn1)[C@@H](C)O)[C@@H](C)O)C(=O)N[C@@H](CO)C(=O)N[C@@H](CCCCN)C(=O)N[C@@H](Cc1ccc(O)cc1)C(=O)N[C@@H](CC(C)C)C(=O)N[C@@H](CC(=O)O)C(=O)N[C@@H](CCC(=O)O)C(=O)N[C@@H](CCCNC(=N)N)C(=O)N[C@@H](C)C(=O)N[C@@H](C)C(=O)N[C@@H](CCC(N)=O)C(=O)N[C@@H](CC(=O)O)C(=O)N[C@@H](Cc1ccccc1)C(=O)N[C@H](C(=O)N[C@@H](CCC(N)=O)C(=O)N[C@@H](Cc1c[nH]c2ccccc12)C(=O)N[C@@H](CC(C)C)C(=O)N[C@@H](CC(C)C)C(=O)N[C@@H](CC(=O)O)C(=O)NCC(=O)NCC(=O)N1CCC[C@H]1C(=O)N[C@@H](CO)C(=O)N[C@@H](CO)C(=O)NCC(=O)N[C@@H](C)C(=O)N1CCC[C@H]1C(=O)N1CCC[C@H]1C(=O)N1CCC[C@H]1C(=O)N[C@@H](CO)C(=O)NCC(N)=O)C(C)C)C(=O)O)C(=O)O [SEQ ID NO: 207] (H-H[Aib]QGTFTSDK([γGlu-γGlu-Palmitoyl])SKYLDERAAQDFVQWLLDGGPSSGAPPPSG-NH2; N-terminus assumed)
GLP-1 receptor; EC50 (nM) at GLP-1 receptor, Table 16, Example 24
  EC50: 0.002 nM
Glucagon receptor; [1]
  EC50: 0.005 nM
GIP receptor; EC50 (nM) at GIP receptor, Table 16, Example 24
  EC50: 0.015 nM

## H[Aib]QGTFTSDYSKYLDERAAQDFVQWLLDGGPSSGAPPPS[Phe(4-NH2)](X6)G-NH2 [SEQ ID NO: 146]
GLP-1 receptor
  EC50: 0.007 nM
Glucagon receptor
  EC50: 0.007 nM
GIP receptor
  EC50: 0.052 nM

## CCCCCCCCCCCCCCCC(=O)N[C@@H](CCC(=O)NCCCC[C@H](NC(=O)[C@H](CC(=O)O)NC(=O)[C@H](CO)NC(=O)[C@@H](NC(=O)[C@H](Cc1ccccc1)NC(=O)[C@@H](NC(=O)CNC(=O)[C@H](CCC(N)=O)NC(=O)C(C)(C)NC(=O)[C@@H](N)Cc1c[nH]cn1)[C@@H](C)O)[C@@H](C)O)C(=O)N[C@@H](CO)C(=O)N[C@@H](CCCCN)C(=O)N[C@@H](Cc1ccc(O)cc1)C(=O)N[C@@H](CC(C)C)C(=O)N[C@@H](CC(=O)O)C(=O)N[C@@H](CCC(=O)O)C(=O)N[C@@H](CCCNC(=N)N)C(=O)N[C@@H](CCCNC(=N)N)C(=O)N[C@@H](C)C(=O)NC(C)(C)C(=O)N[C@@H](CCC(=O)O)C(=O)N[C@@H](Cc1ccccc1)C(=O)N[C@H](C(=O)N[C@@H](CCC(N)=O)C(=O)N[C@@H](Cc1c[nH]c2ccccc12)C(=O)N[C@@H](CC(C)C)C(=O)N[C@@H](CC(C)C)C(=O)N[C@@H](CC(=O)O)C(=O)N[C@H](C(N)=O)[C@@H](C)O)C(C)C)C(=O)O [compound 31] (H-H[Aib]QGTFTSDK([γGlu-Palmitoyl])SKYLDERRA[Aib]EFVQWLLDT-NH2; N-terminus assumed)
GLP-1 receptor; EC50 (nM) at GLP-1 Receptor, Table 4, Example 9, composite of multiple different activity assays
  EC50: 0.0044 nM
Glucagon receptor; EC50 (nM) at Glucagon Receptor, Table 4, Example 9, composite of multiple different activity assays
  EC50: 0.008 nM
Glucagon receptor; EC50 (nM) at Glucagon Receptor, Table 7, Example 13
  EC50: 0.008 nM
GIP receptor; EC50 (nM) at GIP Receptor, Table 4, Example 9, composite of multiple different activity assays
  EC50: 0.008 nM
GIP receptor; EC50 (nM) at GIP Receptor, Table 7, Example 13
  EC50: 0.008 nM

## CCCCCCCCCCCCCCCC(=O)N[C@@H](CCC(=O)NCCCC[C@H](NC(=O)[C@H](CC(=O)O)NC(=O)[C@H](CO)NC(=O)[C@@H](NC(=O)[C@H](Cc1ccccc1)NC(=O)[C@@H](NC(=O)CNC(=O)[C@H](CCC(N)=O)NC(=O)C(C)(C)NC(=O)[C@@H](N)Cc1c[nH]cn1)[C@@H](C)O)[C@@H](C)O)C(=O)N[C@@H](CO)C(=O)N[C@@H](CCCCN)C(=O)N[C@@H](Cc1ccc(O)cc1)C(=O)N[C@@H](CC(C)C)C(=O)N[C@@H](CC(=O)O)C(=O)N[C@@H](CCC(=O)O)C(=O)N[C@@H](CCCNC(=N)N)C(=O)N[C@@H](C)C(=O)N[C@@H](C)C(=O)N[C@@H](CCC(N)=O)C(=O)N[C@@H](CC(=O)O)C(=O)N[C@@H](Cc1ccccc1)C(=O)N[C@H](C(=O)N[C@@H](CCC(N)=O)C(=O)N[C@@H](Cc1c[nH]c2ccccc12)C(=O)N[C@@H](CC(C)C)C(=O)N[C@@H](CC(C)C)C(=O)N[C@@H](CC(=O)O)C(=O)NCC(=O)NCC(=O)N1CCC[C@H]1C(=O)N[C@@H](CO)C(=O)N[C@@H](CO)C(=O)NCC(=O)N[C@@H](C)C(=O)N1CCC[C@H]1C(=O)N1CCC[C@H]1C(=O)N1CCC[C@H]1C(=O)N[C@@H](CO)C(N)=O)C(C)C)C(=O)O [SEQ ID NO: 28]
GLP-1 receptor; EC50 (nM) at GLP-1 receptor, Table 15, Example 23
  EC50: 0.002 nM
GLP-1 receptor; GLP-1 Receptor EC50, Table 10, Example 16
  EC50: 0.007 nM
GLP-1 receptor; Table 12, Example 19, read-out: EC50 (cAMP, nmole) GLPR
  EC50: 0.003 nM
Glucagon receptor; EC50 (nM) at glucagon receptor, Table 15, Example 23
  EC50: 0.002 nM
Glucagon receptor; [1]
  EC50: 0.003 nM
GIP receptor; EC50 (nM) at GIP receptor, Table 15, Example 23
  EC50: 0.002 nM
GIP receptor; GIP (0.01), Table 8, Example 14, activity at the GIP receptor
  EC50: 0.003 nM
GIP receptor; Table 10, Example 16, read-out: GIP-1 Receptor EC50
  EC50: 0.003 nM
GIP receptor; Table 12, Example 19, read-out: EC50 (cAMP, nmole) GIPR
  EC50: 0.007 nM
